Results published in patent US7319094B2, “Increased and sustained in vivo gene expression using a nucleic acid, histone and amphipathic compound composition” (Rhode Island Hospital, priority 2001, dated 2008).

Assays:
AD7c-NTP = AD7c-NTP expression in stably transfected PNET2 cells (LacSwitch II inducible system), Western blot / MICE assay; format: cell-based, human
Description: Prior to the invention, cells stably transfected with AD7c-NTP could not be maintained because of progressive cell death. Therefore, an inducible system of AD7c-NTP expression was established using the LacSwitch II mammalian expression vector (Stratagene, La Jolla, Calif.). PNET2 human CNS neuronal cells were stably transfected with the pCMVLacII vector in which the Lac repressor protein driven by a CMV promoter. The Lac repressor protein is targeted to the nucleus by the nuclear localization sequence. […]
Standard Western blot assays wew used to measure cellular levels of p53, Bcl-2, p21/Waf1, phospho-tau, tau, c-fos, NTP, and activated (phosphorylated) forms of Erk mitogen activated protein (MAP) kinase, amino-terminal c-jun-activated kinase (pJNK), and p38/HOG1. […] Protein concentrations were measured using the BCA assay (Pierce, Rockford, Ill.). Samples containing 60 μg of protein were fractionated by sodium dodecyl sulfate polyacrylamide gel electrophoresis (SDS-PAGE), then transferred to PVDF membranes, and analyzed by Western immunoblotting. Immunoreactivity was detected with horseradish peroxidase conjugated secondary IgG and PicoWest enhanced chemiluminescence reagents (Pierce Chemical Company, Rockford, Ill.). CAT activity was measured using known methods. […]

GAPDH = GAPDH immunoreactivity in AD7c-NTP-transfected PNET2 cells, MICE assay; format: cell-based, human; conditions: IPTG 3 mM
Description: The MICE assay is known in the art (e.g., as described by de la Monte et al., 1999, Biotechniques 26:107301076). The assay is a rapid and sensitive method for quantifying immunoreactivity in 96-well micro-cultures and combines the advantages of the enzyme-linked immunosorbant assay with immunocytochemical staining to permit sensitive in situ quantification of protein expression with values normalized to cell density. The cells were fixed in Histochoice (Amresco, Solon, Ohio), permeabilized with 0.05% saponin in Tris-buffered saline (50 mM Tris, pH 7.5, 0.9% NaCl; TBS), and blocked with Superblock-TBS (Pierce, Rockford, Ill.). […] Immunoreactivity was detected using horseradish peroxidase conjugated secondary antibody (Pierce, Rockford, Ill.) and the TMB soluble peroxidase substrate (Pierce, Rockford, Ill.). Absorbances were measured at 450 nm using a Spectracount plate reader.
To compare the levels of protein expression it was necessary to correct for differences in cell density. […] The absorbances (560 nm) were measured using a Spectracount plate reader (Packard Instrument Company, Meriden, Conn.). The MICE index was calculated from the ratio of the absorbances measured for immunoreactivity and cell density. Coomassie blue absorbance increases linearly with cell density between 1×10^4 and 5×10^5 cells per well. Eight or 16 replicate culture wells were analyzed in each experiment. […]

CC(C)S[C@@H]1O[C@H](CO)[C@H](O)[C@H](O)[C@H]1O [IPTG, Isopropyl-1-[…]-D-thiogalactopyranoside]
increase in N314-immunoreactive NTP (MICE assay) (AD7c-NTP; IPTG 3 mM, 24 hours of induction): greater than five-fold
optimum concentration for inducing gene expression (AD7c-NTP; PNET2 clones): 3 mM
levels of GAPDH (MICE assay) (GAPDH): no change
